Data as given in article PMC8217011, “Natural brominated phenoxyphenols kill persistent and biofilm-incorporated cells of MRSA and other pathogenic bacteria” (Applied Microbiology and Biotechnology, 2020).
pIC50: −log10 of the molar value. Several values for one entry are separate records, joined by “and”; a condition that tells them apart may be missing. Equal entries are not always repeated.

Columns and labels:
[1] = test system: Acinetobacter baumannii ATCC 747; assay: MIC determination (microbroth dilution); type: cell-based; conditions: Acinetobacter baumannii, ATCC747
Experimental: (§1) Cultures were, if not stated differently, incubated at 37 °C with aeration and shaking (150 rpm) in Mueller-Hinton broth (MHB). Bacteria were freshly incubated at the next morning from an overnight pre-culture for actively growing bacteria to an OD600 nm of approx. 0.6. To ensure persistent growth form, the bacteria were grown overnight until a density at OD600 nm > 5.0 was obtained. For biofilm growth, some colonies from a Mueller-Hinton agar (MHA) plate were picked and resuspended in MHB. Cell density has been adjusted to OD600 nm = 0.8, and cells were sown into a flat-bottom 96-well plate to be incubated statically at 37 °C with aeration. Studies were mainly performed with S. aureus Mu50.
(§2) The minimal inhibitory concentration (MIC) has been determined according to the CSLI guidelines (CLSI [2012]). Briefly, in a sterile polystyrene U-bottom 96-well plate, a 2-fold serial dilution ranging from 100 to 0.78 μM of testing compounds has been prepared in 50 μL MHB. A freshly inoculated S. aureus culture was grown until OD600 nm of approx. 0.6 and diluted to 10^6 CFU/mL in MHB. Finally, 50 μL of the latter cell suspension was added to each well and then incubated statically for 18–24 h at 37 °C. MIC was determined using BacTiterGlo ATP assay (Promega, Madison, WI, USA) and Tecan Infinite F200 Pro (Tecan, Männedorf, Switzerland). Moxifloxacin and DMSO were used as positive and negative control, respectively. Sublethal concentrations of colistin (0.1 μM) were used in some experiments to increase the permeability of the gram-negative cell envelope for compound testing. For E. cloacae, a broth microdilution assay was performed using a serial 2-fold dilution in 96-well flat-bottomed plates (Falcon, BD Bioscience, Heidelberg) of both PPs in broth LB medium (Roth, Karlsruhe) at a concentration range of 50–0.024 μM.

[2] = test system: Bacillus subtilis 168 trp C2; assay: MIC determination (microbroth dilution); type: cell-based; conditions: 168TRPC2
Experimental: as §1, §2

E. faecalis ATCC 51299 = assay: MIC determination (microbroth dilution); type: cell-based; conditions: Enterococcus faecalis, ATCC51299
Experimental: as §1, §2

E. faecium ATCC 700221 = assay: MIC determination (microbroth dilution); type: cell-based; conditions: Enterococcus faecium, ATCC700221
Experimental: as §1, §2

[3] = test system: Enterococcus faecium ATCC 35667; assay: MIC determination (microbroth dilution); type: cell-based; conditions: ATCC35667
Experimental: as §1, §2

[4] = test system: Escherichia coli ATCC 25922; assay: MIC determination (microbroth dilution); type: cell-based; conditions: Escherichia coli
Experimental: as §1, §2

[5] = test system: Pseudomonas aeruginosa PAO1; assay: MIC determination (microbroth dilution); type: cell-based
Experimental: as §1, §2

S. aureus USA300 = assay: MIC determination (microbroth dilution); type: cell-based; conditions: Staphylococcus aureus
Experimental: as §1, §2

[6] = test system: S. aureus mutant M2 (parental strain ATCC 25923); assay: MIC of spontaneously resistant mutant; type: cell-based; conditions: Staphylococcus aureus, ATCC25923
Experimental: as §2
(§3) Spontaneous resistant mutants have been generated with 2-bromo-PP and 3-bromo-PP to further investigate the mechanism of antibacterial action and resistance. Since isolation of spontaneous resistant mutants in one step was not successful on solid media containing 2-bromo-PP or 3-bromo-PP (i.e. resistance frequency < 10^−7 at 5-fold MIC), enrichment was done by passaging bacteria daily in liquid media containing increasing sublethal concentrations of PPs. […] Moreover, we observed cross-resistance between PPs since 2-bromo-PP-resistant mutants were also resistant against 3-bromo-PP and vice versa (Fig. 4a; Table 2).

[7] = test system: S. aureus mutant M3 (parental strain ATCC 25923); assay: MIC of spontaneously resistant mutant; type: cell-based; conditions: Staphylococcus aureus, ATCC25923
Experimental: as §2, §3

[8] = test system: S. aureus mutant M5 (parental strain Mu50); assay: MIC of spontaneously resistant mutant; type: cell-based; conditions: Staphylococcus aureus
Experimental: as §2, §3

[9] = test system: S. aureus mutant M6 (parental strain Mu50); assay: MIC of spontaneously resistant mutant; type: cell-based; conditions: Staphylococcus aureus
Experimental: as §2, §3

CLS-54 (CLS 300227) = assay: Cytotoxicity assay (Resazurin); type: cell-based; conditions: Homo sapiens, 48 h, 2 days
Experimental: (§4) Human cell lines were grown in their respective growth medium. Cells have been counted using a haemocytometer, and cell density was adjusted to 10^6 cells/mL. A 2-fold serial dilution was prepared in 96-well U-bottom plates, and cells were sown into the wells to a final density of […]. After 2 days at 37 °C and 5% CO2, 10 μL of a 100 μg/mL Resazurin dye solution was added to each well and was incubated for several hours. The reaction was inactivated with 100 μL of a 10% formalin solution per well. Finally, the fluorescence was quantified in a plate reader with 535-nm excision and 590-nm emission wavelengths.

HEK293 (CLS 300192) = assay: Cytotoxicity assay (Resazurin); type: cell-based; conditions: Homo sapiens, HEK293, 48 h, 2 days
Experimental: as §4

HuH7 (CLS 300156) = assay: Cytotoxicity assay (Resazurin); type: cell-based; conditions: Homo sapiens, Huh-7, 48 h, 2 days
Experimental: as §4

MRC-5 (ATCC CCL-171) = assay: Cytotoxicity assay (Resazurin); type: cell-based; conditions: Homo sapiens, MRC5, 48 h, 2 days
Experimental: as §4

THP-1 (ATCC TIB-202) = assay: Cytotoxicity assay (Resazurin); type: cell-based; conditions: Homo sapiens, THP-1, 48 h, 2 days
Experimental: as §4

[10] = test system: actively replicating MRSA strain Mu50; assay: Killing kinetics, actively replicating cells (CFU plating); type: cell-based, Staphylococcus aureus; conditions: MHB, start 10^6 CFU/mL; for time of first antibacterial effects: 4× MIC; for time until viability reached the detection limit: PPs at 4× MIC, moxifloxacin 20 μM, detection limit 10^2 CFU/mL
Experimental: S. aureus cells were freshly incubated in MHB until an OD600 nm of approx. 0.6 was reached. Next, the cells were diluted to 10^6 CFU/mL in 5 mL MHB. […] At certain time points (0, 0.5, 1, 3, 6, 8, 24 h), 100 μL was removed from the culture, diluted and plated onto MHA plates. After 24-h incubation, colonies were counted and viability (expressed as colony-forming units per mL (CFU/mL)) was calculated considering the dilution factor.

A. baumannii ATCC 747 = assay: Killing kinetics, replicating cells; type: cell-based; conditions: 2-bromo-PP 3.125 µM, 3-bromo-PP 6.25 µM; multidrug-resistant Acinetobacter baumannii as worded
Experimental: 39 Figure S2 – Bactericidal effects of 2-bromo-PP and 3-bromo-PP against replicating
40 cells of A. baumannii ATCC 747. Colistin was used as positive control (3.125 µM). 2-
41 bromo-PP and 3-bromo-PP were used at concentrations of 3.125 µM and 6.25 µM,
42 respectively. The limit of detection was 500 CFU/mL.
(1 picture or pasted object on this page, not shown here)

**Q.** With `Oc1c(Br)cc(Br)c(Br)c1Oc1ccc(Br)cc1Br` [3-bromo-PP, 3,4,6-tribromo-2-(2′,4′-dibromophenoxy)phenol] as the compound, how does the MIC90 [1] read?
**A.** 3.12 µM and 1.81 µg/mL

**Q.** And the MIC90 [2]?
**A.** 0.39 µM and 0.23 µg/mL

**Q.** What about the MIC90 (E. faecalis ATCC 51299) of the same compound?
**A.** 0.78 µM and 0.45 µg/mL

**Q.** And the MIC90 (E. faecium ATCC 700221)?
**A.** 0.78 µM and 0.45 µg/mL

**Q.** What about the MIC90 [3] of the same compound?
**A.** 0.39 µM and 0.23 µg/mL

**Q.** What about the MIC90 ([4]; ATCC25922, + 0.1 μM colistin) of the same compound?
**A.** 0.04 µM and 0.02 µg/mL

**Q.** And the MIC90 ([4]; ATCC25922, without colistin)?
**A.** 6.25 µM and 3.63 µg/mL

**Q.** What about the MIC90 [5] of the same compound?
**A.** 1.56 µM and 0.9 µg/mL

**Q.** And the MIC90 (S. aureus USA300)?
**A.** 0.39 µM and 0.23 µg/mL

**Q.** And the MIC90 [6]?
**A.** 3.12 µM and 1.81 µg/mL

**Q.** What about the MIC90 [7] of the same compound?
**A.** 6.25 µM and 3.63 µg/mL

**Q.** What about the MIC90 [8] of the same compound?
**A.** 3.12 µM and 1.81 µg/mL

**Q.** What about the MIC90 [9] of the same compound?
**A.** 3.12 µM and 1.81 µg/mL

**Q.** And the pIC50 (CLS-54 (CLS 300227))?
**A.** < 4.00

**Q.** What about the pIC50 (HEK293 (CLS 300192)) of the same compound?
**A.** 5.51

**Q.** What about the pIC50 (HuH7 (CLS 300156)) of the same compound?
**A.** < 4.00

**Q.** What about the pIC50 (MRC-5 (ATCC CCL-171)) of the same compound?
**A.** 4.00

**Q.** And the pIC50 (THP-1 (ATCC TIB-202))?
**A.** 4.30

**Q.** And the “time of first antibacterial effects” value [10]?
**A.** 6 h

**Q.** What about the “time until viability reached the detection limit” value [10] of the same compound?
**A.** 8 h

**Q.** What about the “bactericidal effect against replicating cells” value (A. baumannii ATCC 747) of the same compound?
**A.** comparable bactericidal effect

**Q.** With `Oc1c(Br)cc(Br)cc1Oc1ccc(Br)cc1Br` [2-bromo-PP, 4,6-dibromo-2-(2′,4′-dibromophenoxy)phenol] as the compound, how does the MIC90 [1] read?
**A.** 0.78 µM and 0.39 µg/mL

**Q.** What about the MIC90 [2] of the same compound?
**A.** 0.39 µM and 0.2 µg/mL

**Q.** What about the MIC90 (E. faecalis ATCC 51299) of the same compound?
**A.** 0.78 µM and 0.39 µg/mL

**Q.** And the MIC90 (E. faecium ATCC 700221)?
**A.** 0.78 µM and 0.39 µg/mL

**Q.** What about the MIC90 [3] of the same compound?
**A.** 0.78 µM and 0.39 µg/mL

**Q.** And the MIC90 ([4]; ATCC25922, + 0.1 μM colistin)?
**A.** 0.04 µM and 0.02 µg/mL

**Q.** And the MIC90 ([4]; ATCC25922, without colistin)?
**A.** 3.12 µM and 1.57 µg/mL

**Q.** What about the MIC90 [5] of the same compound?
**A.** 0.78 µM and 0.39 µg/mL

**Q.** And the MIC90 (S. aureus USA300)?
**A.** 0.78 µM and 0.39 µg/mL

**Q.** And the MIC90 [6]?
**A.** 1.56 µM and 0.78 µg/mL

**Q.** What about the MIC90 [7] of the same compound?
**A.** 0.78 µM and 0.39 µg/mL

**Q.** And the MIC90 [8]?
**A.** 1.56 µM and 0.78 µg/mL

**Q.** What about the MIC90 [9] of the same compound?
**A.** 0.78 µM and 0.39 µg/mL

**Q.** And the pIC50 (CLS-54 (CLS 300227))?
**A.** < 4.00

**Q.** What about the pIC50 (HEK293 (CLS 300192)) of the same compound?
**A.** 4.90

**Q.** What about the pIC50 (HuH7 (CLS 300156)) of the same compound?
**A.** < 4.00

**Q.** What about the pIC50 (MRC-5 (ATCC CCL-171)) of the same compound?
**A.** < 4.00

**Q.** And the pIC50 (THP-1 (ATCC TIB-202))?
**A.** 5.20

**Q.** What about the “time of first antibacterial effects” value [10] of the same compound?
**A.** 3 h

**Q.** What about the “time until viability reached the detection limit” value [10] of the same compound?
**A.** 8 h

**Q.** What about the “bactericidal effect against replicating cells” value (A. baumannii ATCC 747) of the same compound?
**A.** comparable bactericidal effect
